Experimental data as given in patent publication US5525350A, “Supplementation of protein diets with di- and tripeptides” (Kansas State University Research Foundation, priority 1994, dated 1996).
Counter-ions that a name gives are not always drawn. Peptide text beside a SMILES is read from it.

Assays:
pigs = test: growth assay, starter pig performance 0-21 days post-weaning; type: in vivo; conditions: for Daily gain: fed ad libitum
Source text: (§1) A trial of 180 (21±2 days of age) pigs was used in a growth assay to compare the effects of supplementing the pigs' diet with L-lysine^. HCl, 98% (78.5% lysine), and the dipeptide L-lysyl-glycine^. HCl (approximately 50% lysine) on starter pig performance and nitrogen utilization. Pigs were blocked (n=5) by initial weight (6.3 kg) and assigned to treatments according to ancestry and sex. Feed and water were available ad libitum for 21 days post-weaning (11.7 kg final weight). The control diets were formulated to include 0.9% and 1.1% lysine respectively, using a corn-soybean meal mixture containing 15% edible grade dried whey. Synthetic lysine^. HCl and the dipeptide lysyl-glycine were added to the control diets to form test diets containing 1.0% and 1.1% lysine and lysyl-glycine respectively. The following table sets forth each of the six diets used in this study.
(§2) Serum samples were obtained on days 7, 14, and 21 for analysis of urea nitrogen. Data were analyzed as a randomized complete block design and means were separated using Bonferroni pared t-tests. Single df contrasts were used to evaluate differences between the two lysine sources and levels. No differences in daily gain or daily feed intake were observed between treatments. In general, pigs consuming the 1.1% lysine corn-soybean meal control diet had higher urea nitrogen than the pigs consuming the reduced protein diets and those consuming the 1.1% lysine, lysyl-glycine supplemented diet had the lowest urea nitrogen. Pigs consuming the diets containing lysyl-glycine had lower urea nitrogen levels than pigs fed the lysine^. HCl diets on day 21. […] HCl as evidenced by the lower serum urea nitrogen levels on day 21.

[1] = serum urea nitrogen (nitrogen utilization) in starter pigs; type: in vivo; conditions: for d 7 urea N: day 7; for d 14 urea N: day 14
Source text: as §1, §2

[2] = serum, day 21, diet 1.0% lysine
[3] = serum, day 21, diet 1.1% lysine

SMILES | Daily feed (pigs; diet 1.0% lysine) [g] | Gain/feed (pigs; diet 1.0% lysine) | Daily gain (pigs; diet 1.0% lysine) [g] | Daily feed (pigs; diet 1.1% lysine) [g] | Gain/feed (pigs; diet 1.1% lysine) | Daily gain (pigs; diet 1.1% lysine) [g] | d 7 urea N ([1]; serum, diet 1.0% lysine) [mg/dL] | d 7 urea N ([1]; serum, diet 1.1% lysine) [mg/dL] | d 14 urea N ([1]; serum, diet 1.0% lysine) [mg/dL] | d 14 urea N ([1]; serum, diet 1.1% lysine) [mg/dL] | d 21 urea N [1, 2] [mg/dL] | d 21 urea N [1, 3] [mg/dL] | amino acid utilization compared with lysine HCl ([1]; as evidenced by lower serum urea nitrogen on day 21) | urea nitrogen levels compared with pigs fed the lysine HCl diets ([1]; serum, day 21, P = 0.05) | urea nitrogen compared with the other diets ([1]; serum, 1.1% lysine, lysyl-glycine supplemented diet, in general)
NCCCC[C@H](N)C(=O)O [Lysine HCl, L-lysine^. HCl, reference compound] | 460 | 600 | 276 | 413 | 613 | 253 | 9.5 | 9.2 | 9.6 | 8.4 | 10.7 | 8.5 | – | – | –
NCCCC[C@H](N)C(=O)NCC(=O)O [Lysyl-glycine, L-lysyl-glycine^. HCl] (H-Lys-Gly-OH) | 395 | 547 | 218 | 432 | 643 | 280 | 9.7 | 8.5 | 8.9 | 8.6 | 9.1 | 7.9 | more efficiently utilized | lower | lowest
